Tested on: E. amylovora 153N
Assay: Fire blight on Snow Drift crabapple trees (Example 311)
Format: in vivo
Details: rate 5 lbs/a (2.27 kg/a)
Procedure: A study of the bioefficacy of the various agrichemical compositions, including bioactive acid solutions and blends thereof with an antibiotic agrichemical, were evaluated to assess their bioefficacy against fire blight on crabapples. The study was conducted on 5 year old Snow Drift crabapple trees, with each of the compositions being applied to ten trees in two-subplots of five trees, four different times: at 100% bloom—day 1, a second application was made on day 4, a third on day 11 and a final treatment on day 19. The trees were inoculated with E. amylovora 153N at a concentration of 4×10^6 cells per milliliter on day 1, following drying of the treatment, with the inoculation being repeated on day 13. Evaluation for fire blight was completed on 100 blossoms for each of the subplots on day 12, day 19 and day 27. Additionally, the incidence of shoot infection and the length of cankers were evaluated on day 63.
The test compositions were prepared by forming solutions of the bioactive agents. Two different dilutions of the MI2 bioactive were evaluated, the first employing 94.46 ml/gallon (25 ml/l) of water (5 ppm of each metal) and the second 188.9 ml/gallon (50 ml/l) of water (10 ppm of each metal). A streptomycin product (17% concentrated) was diluted at a rate of 0.049 lbs/gallon ([…]) (200 ppm). Finally, copper hydroxide was diluted at a rate of 1 lb/gallon (119.8 g/l). Each of the compositions and blends were spray applied at a rate of 50 gallons (189.3 l) pre acre. The results are presented as the mean of the counts.

[Cu+2].[OH-].[OH-] [copper hydroxide]
Blossom Incidence Day 12 (day 12, mean of counts per 100 blossoms): 3.1 | Blossom Incidence Day 19 (day 19): 2.2 | Blossom Incidence Day 27 (day 27): 9.0 | Canker Size Day 63 (day 63): 0.0 cm | Shoot Incidence Day 63 (day 63): 1.0
